Measurements from patent publication US20250188410A1, “NICOTINAMIDE ADENINE DINUCLEOTIDE (NAD+) PRECURSORS, NAD PATHWAY SUBSTRATES COMPOSITIONS AND USES THEREOF” (Colossal Biosciences Inc., priority 2023, published 2025).
Several values for one entry are separate records, joined by “and”; a condition that tells them apart may be missing. Equal entries are not always repeated.

Experiments:
bovine embryos [1] = assay: Presumptive bESC colonies at day 25 by Alkaline Phosphatase staining (bESC derivation); type: cell-based; settings: for number of presumptive bESC colonies (increase): IVF and PA groups, supplementation during the first seven days; for number of presumptive bESC colonies (increase) / # colonies per cm^2 / Average (# colonies per cm^2) / Fold vs Control (presumptive bESC colonies): day 25; for # colonies per cm^2 / Average (# colonies per cm^2) / Fold vs Control (presumptive bESC colonies) / Number of AP+ Colonies: IVF; for Number of AP+ Colonies: day 25, 12 well plate
Procedure: (§1) After identifying the NAD^+ precursor dosage, experiment 2 was performed. Embryos were cultured in in vitro culture medium (BO-IVC; IVF Biosciences) supplemented with NA or NMN for 7-14 days in air controlled atmosphere (5% CO2 and 5% O2) at 38.5° C. Embryos cultured with NAD^+ precursor were collected at the blastocyst stage (D7) and plated in co-culture with irradiated mouse embryonic fibroblast (MEF) and bovine ESCs medium ([…]) until day 25 for bovine ESCs Derivation: Timeline bESC Derivation: • D0-D7 Incubation of IVF-produced embryos in IVC supplemented with NAD^+ precursor for seven days. • D7 Plating of embryos for ESC derivation on medium […] on Cf1 MEF. Treatment with Y27632 for last 12 hours of culturing. • D14 Mechanically isolate the ICM and transfer to a new plate. […] NMN and Nicotinic Acid (NA, also known as Niacin) were used as the NAD^+ precursors in this experiment. On day 7 of supplementation, blastocysts were collected and plated on MEFs in a […] medium.

bovine embryos [2] = assay: Attachment rate of embryos at day 11 of culture on MEFs in bEPSCM (Experiment 2); type: cell-based
bovine embryos [3] = assay: Measurement of ICM and outgrowths for day 14 embryos before ICM isolation; type: cell-based; settings: IVF embryos
Procedure: as §1

bovine embryos [4] = assay: as above; type: cell-based; settings: PA embryos
bovine embryos [5] = assay: Presumptive bESC colonies at day 25 by Alkaline Phosphatase staining (bESC derivation); type: cell-based; settings: PA, replicate 1, 5 seed embryos; for # colonies per cm^2 / Average (# colonies per cm^2) / Fold vs Control (presumptive bESC colonies): day 25; for Number of AP+ Colonies: day 25, 12 well plate
[6] = IVM or embryo culture media supplemented with NMN; cited from earlier work
bovine embryos [7] = assay: Early embryo development of bovine embryos in IVC medium supplemented with NAD+ precursor (Experiment 1); type: cell-based
Procedure: The NAD^+ precursors […] (NMN) or Nicotinic acid […] (NA) (SG; Sigma N7764) were supplemented into in vitro culture medium (BO-IVC; IVF Biosciences), and bovine embryos obtained by in vitro fertilization (IVF) or parthenogenetic activation (PA) were cultured for 7-14 days in air controlled atmosphere (5% CO2 and 5% O2) at 38.5° C. Embryo development was evaluated at day 3 (D3-cleavage rate), day 7 (D7−Blastocyst rate), and day 11 (D11−Hatching rate). In addition, the expansion of hatched blastocysts from day 11-13 was evaluated. Based on this testing (see in Experiment 1 below) suitable dosages of NAD^+ precursors were identified.
Different doses of NMN (125 to 1000 μM) were added to the IVC culture medium containing bovine embryos for up to 14 days. No effect of NAD^+ precursor presence was observed on the cleavage or blastocyst rates for all three replicates (see FIG. 1, FIG. 2A, FIG. 2B, and FIG. 3).

| number of presumptive bESC colonies (increase) (bovine embryos [1]) | SMILES | # colonies per cm^2 (bovine embryos [1]; replicate 1, 1 seed embryo) | Average (# colonies per cm^2) (bovine embryos [1]; replicate 1, 1 seed embryo) | Fold vs Control (presumptive bESC colonies) (bovine embryos [1]; replicate 1, 1 seed embryo) | Number of AP+ Colonies (bovine embryos [1]; replicate 1, 1 seed embryo) | # colonies per cm^2 (bovine embryos [1]; replicate 2, 5 seed embryos) | Average (# colonies per cm^2) (bovine embryos [1]; replicate 2, 5 seed embryos) | Fold vs Control (presumptive bESC colonies) (bovine embryos [1]; replicate 2, 5 seed embryos) | Number of AP+ Colonies (bovine embryos [1]; replicate 2, 5 seed embryos) | % Attached (bovine embryos [2]; IVF embryos) [%] | Fold vs Control (attachment rate) (bovine embryos [2]; IVF embryos) | % Attached (bovine embryos [2]; PA embryos) [%] | Fold vs Control (attachment rate) (bovine embryos [2]; PA embryos) | AVG Fold (ICM/outgrowth) (bovine embryos [3]) | AVG ICM (bovine embryos [3]) [μm] | AVG Outgrowth (bovine embryos [3]) [μm] | AVG Fold (ICM/outgrowth) (bovine embryos [4]) | AVG ICM (bovine embryos [4]) [μm] | AVG Outgrowth (bovine embryos [4]) [μm] | # colonies per cm^2 (bovine embryos [5]) | further results |
| --- | --- | --- | --- | --- | --- | --- | --- | --- | --- | --- | --- | --- | --- | --- | --- | --- | --- | --- | --- | --- | --- |
| increased by three times | O=C(O)c1cccnc1 [NA, nicotinic acid (pyridine-3-carboxylic acid), reference compound] | 82 and 72.29 and 8 | 54.1 | 2.958 | 287 and 253 and 28 | 33.43 | 33.43 | 3.25 | 117 | 100 | 1.33 | 60 | 3 | 0.09417 | 76.27 | 905.9 | 0.1303 | 48.9 | 436.7 | 15.14 | Average (# colonies per cm^2) (bovine embryos [5]): 15.14; Fold vs Control (presumptive bESC colonies) (bovine embryos [5]): 2.944; Number of AP+ Colonies (bovine embryos [5]): 53 |
| increased by three times | NC(=O)c1ccc[n+]([C@@H]2O[C@H](COP(=O)([O-])O)[C@@H](O)[C@H]2O)c1 [NMN, nicotinamide mononucleotide] | 11.14 and 16.29 and 10.86 | 12.76 | 0.6979 | 39 and 57 and 38 | 16.29 | 16.29 | 1.583 | 57 | 100 | 1.33 | 60 | 3 | 0.1124 | 58.38 | 645.2 | 0.1845 | 47.2 | 458.5 | 12 | maturation or embryo development [6]: no effect; cleavage rate (bovine embryos [7]; NMN 125 to 1000 μM in IVC culture medium, day 3, three replicates): No effect; blastocyst rate (bovine embryos [7]; NMN 125 to 1000 μM in IVC culture medium, day 7, three replicates): No effect; morphology of hatched blastocysts (bovine embryos [7]; supplementation in IVC, day 11 to day 13): beneficially impact; Average (# colonies per cm^2) (bovine embryos [5]): 12; Fold vs Control (presumptive bESC colonies) (bovine embryos [5]): 2.333; Number of AP+ Colonies (bovine embryos [5]): 42 |
